“And” between values parts separate entries of the source, which are not always exact repeats. Equal values may be shown once. Read-outs that look alike come from different tables or passages of the source.
What was measured:
[1] = system: putrefying bacteria in tofu (soybean curd); experiment: Viable cell numbers in prepared food after spraying (Test Example 3); type: cell-based
Description: (§1) With regards to the putrefaction process of prepared food, we investigated whether or not the present bactericidal disinfectant could stop the progress of putrefaction when sprayed of food, and the degree of that bactericidal effect. Normally disinfectants are not applied to prepared food, but very often scraps of food become lodged in a periodontal pocket, providing a nutritional source for bacteria, and since the present bactericidal disinfectant is composed of compounds which are recognized as food additives, it is important to assess these effects. Just-prepared cooked rice, tofu (soybean curd), spinach with sesame dressing, and fried meat and vegetables were each crushed, homogenized, and left at 28° C. for use as the samples. After samples had been left for 5 hours, part of each was taken and used to measure bacterial viable cell number, while the respective disinfectants were sprayed uniformly on the remaining samples. Viable cell numbers were measured 1, 2 and 24 hours after spraying. Water alone was sprayed as a control. After samples had been left for 24 hours part of each was taken for measuring viable cell number, and the respective disinfectants were sprayed uniformly on the remaining samples. As when the samples were left for 5 hours, viable cell numbers were measured 1 hour, 2 hours and 24 hours after spraying. Water alone was sprayed as a control. Viable cell numbers were measured by the poured plate method using 5 g of each sample diluted by ordinary methods.
(§2) The degree of putrefaction of course differs depending on the preparation method, ingredients and environment, but in the case of the cooked rice in this experiment, the viable cell number immediately after preparation was […] cells/g of sample, rising to 1×10^3 cells/g of sample after 5 hours, 5×10^5 cells/g of sample after 24 hours and 7×10^6 cells/g of sample after 48 hours. In the case of the tofu (soybean curd), the initial viable cell number was 2×10^4 cells/g of sample, rising to 8×10^5 cells/g of sample after 5 hours, 9×10^7 cells/g of sample after 24 hours, and 1×10^9 cells/g of sample after 48 hours, with considerable putrefaction. In the case of the spinach with sesame dressing, the viable cell number was 2×10^3 cells/g of sample immediately after preparation, rising to 5×10^4 cells/g of sample after 5 hours, 3×10^7 cells/g of sample after 24 hours and 2×10^8 cells/g of sample after 48 hours. In the case of the fried meat and vegetables, it was […] cells/g of sample immediately after preparation, rising to 2×10^3 cells/g of sample after 5 hours and 2×10^8 cells/g of sample after 24 hours, at which point there was a slight smell of putrefaction, while after 48 hours putrefaction has progressed still further and the viable cell number had risen to 3×10^9 cells/g of sample.

[2] = system: putrefying bacteria in spinach with sesame dressing; experiment: as above; type: cell-based
Description: as §1, §2

[3] = system: putrefying bacteria in fried meat and vegetables; experiment: as above; type: cell-based
Description: as §1, §2

[4] = system: putrefying bacteria in cooked rice; experiment: as above; type: cell-based
Description: as §1, §2

acid-fast bacteria = type: cell-based
thumbnails of volunteers = experiment: Elongation of thumbnails (Test Example 7); type: in vivo, human; conditions: for Elongation of nails: Left (treated) thumbnail
Description: As a general rule the bacterial disinfectants were applied immediately after hand washing. Nail growth and shape are closely tied to individual physical condition, and are a benchmark of health.

MRSA or E. coli O-157 = type: cell-based; conditions: organic substance exceeding 50 ppm
[5] = system: spores of sporulating bacteria; type: cell-based
[6] = system: detached skin wounds of mice; experiment: Recovery from skin damage (Test Example 5); type: in vivo; conditions: applied to wound twice a day
[7] = system: putrefying bacteria in prepared food; experiment: Viable cell numbers in prepared food after spraying (Test Example 3), summary; type: cell-based
Description: With regards to the putrefaction process of prepared food, we investigated whether or not the present bactericidal disinfectant could stop the progress of putrefaction when sprayed of food, and the degree of that bactericidal effect. Normally disinfectants are not applied to prepared food, but very often scraps of food become lodged in a periodontal pocket, providing a nutritional source for bacteria, and since the present bactericidal disinfectant is composed of compounds which are recognized as food additives, it is important to assess these effects. Just-prepared cooked rice, tofu (soybean curd), spinach with sesame dressing, and fried meat and vegetables were each crushed, homogenized, and left at 28° C. for use as the samples. […] Water alone was sprayed as a control. […] Water alone was sprayed as a control. […] Consequently, although complete eradication was not achieved, it can be said that bactericide was largely achieved. That is, there is the ability to halt development of putrefying bacteria in food and a bactericidal effect.

[8] = system: plaque adhering to supragingival calculus; experiment: Viable cell numbers in plaque soaked in disinfectant (Test Example 4); type: cell-based; conditions: 60 minutes of immersion
[9] = system: plaque adhering to subgingival calculus; experiment: as above; type: cell-based; conditions: 60 minutes of immersion
[10] = sprayed after 5 hours, 1 hr after spraying
[11] = sprayed after 5 hours, 2 hrs after spraying
[12] = sprayed after 5 hours, 24 hrs after spraying
[13] = sprayed after 5 hours, just after spraying
[14] = sprayed after 24 hours, 1 hr after spraying
[15] = sprayed after 24 hours, 2 hrs after spraying
[16] = sprayed after 24 hours, 24 hrs after spraying
[17] = sprayed after 24 hours, just after spraying
[18] = 5 days after severing, 20 mm when severed

Description for Red worms: Red worms with a mean length of 40 mm were prepared in groups of 10, the annuli of the red worms were severed with a cutter, and ordinary concentrations of the various bactericidal disinfectants contained in absorbent cotton were applied to the severed ends twice a day, morning and night. Application to the ends was continued even after the severed ends healed, and recovery and growth were observed. Water was applied as a control.

OO [3% aqueous hydrogen peroxide, hydrogen peroxide]
viable cell number [1, 10]: 2 × 10^3 cells/g of sample | viable cell number [1, 11]: 3 × 10^4 cells/g of sample | viable cell number [1, 12]: 6 × 10^6 cells/g of sample | viable cell number [1, 13]: 5 × 10^4 cells/g of sample | viable cell number [1, 14]: 3 × 10^4 cells/g of sample | viable cell number [1, 15]: 5 × 10^4 cells/g of sample | viable cell number [1, 16]: 1 × 10^8 cells/g of sample | viable cell number [1, 17]: 7 × 10^5 cells/g of sample | viable cell number [2, 10]: 4 × 10^2 cells/g of sample | viable cell number [2, 11]: 5 × 10^2 cells/g of sample | viable cell number [2, 12]: 1 × 10^5 cells/g of sample | viable cell number [2, 13]: 1 × 10^3 cells/g of sample | viable cell number [2, 14]: 5 × 10^3 cells/g of sample | viable cell number [2, 15]: 5 × 10^3 cells/g of sample | viable cell number [2, 16]: 7 × 10^6 cells/g of sample | viable cell number [2, 17]: 4 × 10^4 cells/g of sample | viable cell number [3, 10]: 2 × 10^2 cells/g of sample | viable cell number [3, 11]: 4 × 10^2 cells/g of sample | viable cell number [3, 12]: 5 × 10^6 cells/g of sample | viable cell number [3, 13]: 5 × 10^2 cells/g of sample | viable cell number [3, 14]: 5 × 10^4 cells/g of sample | viable cell number [3, 15]: 1 × 10^5 cells/g of sample | viable cell number [3, 16]: 4 × 10^8 cells/g of sample | viable cell number [3, 17]: 6 × 10^6 cells/g of sample | viable cell number [4, 10]: 1 × 10^2 cells/g of sample | viable cell number [4, 11]: 1.8 × 10^2 cells/g of sample | viable cell number [4, 12]: 5 × 10^4 cells/g of sample | viable cell number [4, 13]: 2 × 10^2 cells/g of sample | viable cell number [4, 14]: 9 × 10^3 cells/g of sample | viable cell number [4, 15]: 2 × 10^4 cells/g of sample | viable cell number [4, 16]: 8 × 10^5 cells/g of sample | viable cell number [4, 17]: 4 × 10^4 cells/g of sample | time required to kill acid-fast bacteria (acid-fast bacteria): a minute or more | length of severed red worms (Red worms; [18]): 21 mm | length of severed red worms (Red worms; 10 days after severing): 22 mm | length of severed red worms (Red worms; 15 days after severing): 23 mm | length of severed red worms (Red worms; 20 days after severing): 24 mm | length of severed red worms (Red worms; 30 days after severing): 25 mm | length of severed red worms (Red worms; 40 days after severing): 27 mm | length of severed red worms (Red worms; 50 days after severing): 28 mm | Deaths (Red worms; groups of 10 red worms): 7 | Elongation of nails (thumbnails of volunteers; 10 days): 0.9 mm | Elongation of nails (thumbnails of volunteers; 20 days): 1.8 mm | Elongation of nails (thumbnails of volunteers; 30 days): 2.7 mm | Elongation of nails (thumbnails of volunteers; 40 days): 3.6 mm | Elongation of nails (thumbnails of volunteers; 50 days): 4.5 mm | Elongation of nails (thumbnails of volunteers; 60 days): 5.4 mm | difference in elongation between right and left hands (thumbnails of volunteers; applied for 2 months): No significant differences in elongation | bactericidal effect in presence of organic substance (MRSA or E. coli O-157): A similar tendency was seen | effect against spores [5]: ineffective | Recovery: Complete recovery (coat grown back) [6]: 40 days | Recovery: Skin with roughly original thickness [6]: 15 days | Recovery: Thin skin overall [6]: 5 days | bactericidal effect on putrefying bacteria in food [7]: most of the bacteria survived immediately after spraying | survival of bacteria living inside plaque [8]: half survived

CC(O)C(=O)O.CCOc1ccc2nc3cc(N)ccc3c(N)c2c1 [Acrinol, acrinol]
length of severed red worms (Red worms; [18]): 21 mm | length of severed red worms (Red worms; 10 days after severing): 22 mm | length of severed red worms (Red worms; 15 days after severing): 23 mm | length of severed red worms (Red worms; 20 days after severing): 24 mm | length of severed red worms (Red worms; 30 days after severing): 27 mm | length of severed red worms (Red worms; 40 days after severing): 29 mm | length of severed red worms (Red worms; 50 days after severing): 30 mm | Deaths (Red worms; groups of 10 red worms): 8 | Elongation of nails (thumbnails of volunteers; 10 days): 0.8 mm | Elongation of nails (thumbnails of volunteers; 20 days): 1.6 mm | Elongation of nails (thumbnails of volunteers; 30 days): 2.4 mm | Elongation of nails (thumbnails of volunteers; 40 days): 3.3 mm | Elongation of nails (thumbnails of volunteers; 50 days): 4.0 mm | Elongation of nails (thumbnails of volunteers; 60 days): 4.8 mm | bactericidal effect in presence of organic substance (MRSA or E. coli O-157): A similar tendency was seen | Recovery: Complete recovery (coat grown back) [6]: 40 days | Recovery: Skin with roughly original thickness [6]: 15 days | Recovery: Thin skin overall [6]: 5 days | survival of bacteria living inside plaque [8]: half survived

N=C(NCCCCCCNC(=N)NC(=N)Nc1ccc(Cl)cc1)NC(=N)Nc1ccc(Cl)cc1 [Hibitane]
viable cell number [1, 12]: 2 × 10^2 cells/g of sample | viable cell number [1, 13]: 8 × 10^2 cells/g of sample | viable cell number [1, 14]: 5 × 10^2 cells/g of sample | viable cell number [1, 15]: 2 × 10^2 cells/g of sample | viable cell number [1, 16]: 3 × 10^3 cells/g of sample | viable cell number [1, 17]: 5 × 10^4 cells/g of sample | viable cell number [2, 12]: 6 × 10^2 cells/g of sample | viable cell number [2, 13]: 2 × 10^2 cells/g of sample | viable cell number [2, 14]: 2 × 10^2 cells/g of sample | viable cell number [2, 15]: 1 × 10^2 cells/g of sample | viable cell number [2, 16]: 8 × 10^3 cells/g of sample | viable cell number [2, 17]: 3 × 10^4 cells/g of sample | viable cell number [3, 12]: 5 × 10^3 cells/g of sample | viable cell number [3, 13]: 2 × 10^2 cells/g of sample | viable cell number [3, 14]: 5 × 10^2 cells/g of sample | viable cell number [3, 15]: 2 × 10^2 cells/g of sample | viable cell number [3, 16]: 5 × 10^4 cells/g of sample | viable cell number [3, 17]: 7 × 10^4 cells/g of sample | viable cell number [4, 13]: 1 × 10^2 cells/g of sample | viable cell number [4, 14]: 7 × 10^2 cells/g of sample | viable cell number [4, 15]: 5 × 10^2 cells/g of sample | viable cell number [4, 16]: 4 × 10^3 cells/g of sample | viable cell number [4, 17]: 1 × 10^4 cells/g of sample | effect against acid-fast bacteria (acid-fast bacteria): ineffective | length of severed red worms (Red worms; [18]): 21 mm | length of severed red worms (Red worms; 10 days after severing): 22 mm | length of severed red worms (Red worms; 15 days after severing): 23 mm | Deaths (Red worms; in vivo): 10 | Elongation of nails (thumbnails of volunteers; 10 days): 0.8 mm | Elongation of nails (thumbnails of volunteers; 20 days): 1.7 mm | Elongation of nails (thumbnails of volunteers; 30 days): 2.5 mm | Elongation of nails (thumbnails of volunteers; 40 days): 3.3 mm | Elongation of nails (thumbnails of volunteers; 50 days): 4.2 mm | Elongation of nails (thumbnails of volunteers; 60 days): 5.0 mm | bactericidal effect in presence of organic substance (MRSA or E. coli O-157): the bacteria did not die after 1 minute of contact | effect against spores [5]: ineffective | Recovery: Thin skin overall [6]: 5 days | Recovery: Complete recovery (coat grown back) ([6]; listed as Hibitane gel): 40 days and 38 days | Recovery: Skin with roughly original thickness ([6]; listed as Hibitane gel): 12 days | survival of bacteria in plaque [9]: continued to survive | bactericidal effect on putrefying bacteria in food [7]: no bactericidal effect in the real sense | survival of bacteria living inside plaque [8]: half survived

Source: US7465576B2, “Method for treating periodontal disease with a bacteriocidal disinfectant” (priority 2004, dated 2008)
